Reference: patent US20030068615A1, “Polypeptides that bind HIV gp120 and related nucleic acids, antibodies, compositions, and methods of use” (priority 1999, published 2003)
Where two headings read alike, the source gives them in different places.

Target: HIV-1LAI envelope gp120 (Human immunodeficiency virus type 1 group M subtype B, UniProt P03377)
Format: binding
Conditions: for COUNTS of radiolabeled gp120 retained: Panel B, 15-mers and 18-mers of CD4, empty control 575; for Relative % of Control: mean of two syntheses and binding experiments ± average deviation, wild-type = 100%; for percentage of binding of mutant polypeptide compared to wild-type polypeptide, gp120: CCR5 alanine mutant peptide; for percentage of binding of mutant polypeptide compared to wild-type polypeptide, gp120 / Counts per 20′ Average-background: radiolabeled HIV-1LAI gp120; for Counts per 20′ Average-background: CCR5 18-mer scan
[1] = CXCR4 18-mer scan, background subtracted, empty control 0
[2] = CXCR4 18-mer scan, empty control 412
[3] = STRL33 18-mer scan, background subtracted, first of two count columns
[4] = STRL33 18-mer scan, background subtracted, second of two count columns

Sequence | Relative % of Control (CXCR4 (1-18) alanine variants) | Relative % of Control (CCR5 (1-18) alanine variants) | also measured
LWDQGNFPLIIKNLK |  |  | COUNTS of radiolabeled gp120 retained: 502 counts
LWDQGNFPLIIKNLKIED |  |  | COUNTS of radiolabeled gp120 retained: 582 counts
LYAFLGAKFKTSAQHALT [CXCR4 segment 301-318] |  |  | radioactive counts recorded in twenty minutes [1]: 156 counts; radioactive counts recorded in twenty minutes [2]: 568 counts
MAEHDYHEDYGFSSFNDS [STRL33 segment 1-18] |  |  | radioactive counts recorded in twenty minutes [3]: 1178.5 counts; radioactive counts recorded in twenty minutes [4]: 1320.5 counts; Binding Results For Window Length (counts bound-background), 9 (STRL33 amino terminus, 9-mer starting at the first residue of the printed sequence, background subtracted): 160 counts; Binding Results For Window Length (counts bound-background), 12 (STRL33 amino terminus, 12-mer starting at the first residue of the printed sequence, background subtracted): 625 counts; Binding Results For Window Length (counts bound-background), 15 (STRL33 amino terminus, 15-mer starting at the first residue of the printed sequence, background subtracted): 1239 counts; Binding Results For Window Length (counts bound-background), 18 (STRL33 amino terminus, 18-mer starting at the first residue of the printed sequence, background subtracted): 1386 counts
MAGISIYTSDNYTEEMGS [CXCR4 (1-18) variant E2A] | 36 ± 0.3% |  | 
MAVFLLTQMPFNLMKFIR [STRL33 segment 237-254] |  |  | radioactive counts recorded in twenty minutes [3]: 2263.5 counts; radioactive counts recorded in twenty minutes [4]: 2842.5 counts
MAYQVSSPIYDINYYTSE [CCR5 (1-18) variant D2A] |  | 125 ± 8% | 
MCKSLLGIYTINFYTSML |  |  | radioactive counts recorded in twenty minutes [3]: 1505.5 counts; radioactive counts recorded in twenty minutes [4]: 1283.5 counts
MDAQVSSPIYDINYYTSE [CCR5 (1-18) variant Y3A] |  | 51 ± 2% | 
MDYAVSSPIYDINYYTSE [CCR5 (1-18) variant Q4A] |  | 104 ± 7% | percentage of binding of mutant polypeptide compared to wild-type polypeptide, gp120: 104%
MDYQASSPIYDINYYTSE [CCR5 (1-18) variant V5A] |  | 82 ± 3% | 
MDYQVASPIYDINYYTSE |  | 124 ± 3% | 
MDYQVSAPIYDINYYTSE |  | 56 ± 2% | 
MDYQVSSAIYDINYYTSE |  | 157 ± 2% | 
MDYQVSSPAYDINYYTSE [CCR5 (1-18) variant printed 19A] |  | 24 ± 7% | 
MDYQVSSPIADINYYTSE [CCR5 (1-18) variant Y10A] |  | 19 ± 6% | percentage of binding of mutant polypeptide compared to wild-type polypeptide, gp120: 19.2%
MDYQVSSPIYAINYYTSE [CCR5 (1-18) variant D11A] |  | 63 ± 22% | percentage of binding of mutant polypeptide compared to wild-type polypeptide, gp120: 62.8%
MDYQVSSPIYDANYYTSE |  | 14 ± 1% | 
MDYQVSSPIYDIAYYTSE |  | 253 ± 19% | 
MDYQVSSPIYDINAYTSE [CCR5 (1-18) variant Y14A] |  | 15 ± 0.3% | percentage of binding of mutant polypeptide compared to wild-type polypeptide, gp120: 14.6%
MDYQVSSPIYDINYATSE [CCR5 (1-18) variant Y15A] |  | 21 ± 5% | percentage of binding of mutant polypeptide compared to wild-type polypeptide, gp120: 21%
MDYQVSSPIYDINYYASE |  | 78 ± 34% | 
MDYQVSSPIYDINYYTAE |  | 64 ± 6% | 

Sequence | Relative % of Control (CXCR4 (1-18) alanine variants) | Relative % of Control (CCR5 (1-18) alanine variants) | also measured
MDYQVSSPIYDINYYTSA [CCR5 (1-18) variant E18A] |  | 4 ± 2% | percentage of binding of mutant polypeptide compared to wild-type polypeptide, gp120: 4.1%
MDYQVSSPIYDINYYTSE |  | 100% | Counts per 20′ Average-background (background subtracted): 735 counts per 20′
MEAISIYTSDNYTEEMGS | 101 ± 3% |  | 
MEGASIYTSDNYTEEMGS | 6 ± 0.3% |  | 
MEGIAIYTSDNYTEEMGS [CXCR4 (1-18) variant S5A] | 133 ± 5% |  | 
MEGISAYTSDNYTEEMGS | 2 ± 1% |  | 
MEGISIATSDNYTEEMGS | 7 ± 0.4% |  | 
MEGISIYASDNYTEEDGS | 97 ± 10% |  | 
MEGISIYTADNYTEEMGS | 70 ± 4% |  | 
MEGISIYTSANYTEEMGS | 71 ± 8% |  | 
MEGISIYTSDAYTEEMGS | 38 ± 0.4% |  | 
MEGISIYTSDNATEEMGS | 28 ± 2% |  | 
MEGISIYTSDNYAEEMGS | 70 ± 6% |  | 
MEGISIYTSDNYTAEMGS | 72 ± 1% |  | 
MEGISIYTSDNYTEAMGS | 56 ± 7% |  | 
MEGISIYTSDNYTEEAGS | 88 ± 4% |  | 
MEGISIYTSDNYTEEMAS | 68 ± 8% |  | 
MEGISIYTSDNYTEEMGA | 79 ± 1% |  | 
MEGISIYTSDNYTEEMGS | 100% |  | radioactive counts recorded in twenty minutes [1]: 2591 counts; radioactive counts recorded in twenty minutes [2]: 3003 counts
MIVYFLFWAPYNIVLLLN [CCR5 segment 241-] |  |  | Counts per 20′ Average-background (background subtracted): 214 counts per 20′
MLILTCITVDRFIVVVKA |  |  | radioactive counts recorded in twenty minutes [3]: 298.5 counts; radioactive counts recorded in twenty minutes [4]: 228.5 counts
MLVILILINCKRLKSMTD [CCR5 segment 49-66] |  |  | Counts per 20′ Average-background (background subtracted): 84 counts per 20′
MNRGVPFRRLLLVLQLALLPA [human CD4 1-21] |  |  | number of radioactive decays (counts) counted (human CD4 21-mer scan, empty control 2075): 3587 counts
